Measurements reported in PMC11882969 (Nature Communications, 2025).
Where “and” joins values, the source holds several entries; their conditions need not be identical. Identical values can stand only once.

Experiments:
Assay type in all cases: cell-based
hCB2 [1] = target: T1, hCB2 (Homo sapiens, UniProt P34972); experiment: Tango β-arrestin-2 recruitment, HTLA cells, CB2R; design: expressed in transfected cells; host or cells: HEK293 cells stably expressing human CB2R (Laboratory of Ken Mackie); conditions: hCB2
Protocol: The Tango β-arrestin-2 recruitment assays were performed as described[83]. In brief, HTLA cells (a gift from the laboratory of R. Axel) were transiently transfected with human CB1R or CB2R Tango DNA construct overnight in DMEM supplemented with 10 % FBS, 100 µg ml−1 streptomycin and 100 U ml−1 penicillin. The transfected cells were then plated into poly-L-lysine-coated 384-well white clear-bottom cell culture plates in DMEM containing 1% dialysed FBS at a density of 10,000–15,000 cells per well. After incubation for 6 h, the plates were added with drug solutions prepared in DMEM containing 1% dialysed FBS for overnight incubation. On the day of assay, medium and drug solutions were removed and 20 µl per well of BrightGlo reagent (Promega) was added. The plates were further incubated for 20 min at room temperature and counted using the Wallac TriLux Microbeta counter (PerkinElmer). The results were analysed using GraphPad Prism 9. Each experiment was performed in triplicate and functional IC50 values were determined from the mean of three independent experiments.

hCB1 = hCB1 (Homo sapiens, UniProt P21554); experiment: Tango β-arrestin-2 recruitment, HTLA cells, CB1R; design: expressed in transfected cells; host or cells: HTLA cells (gift of R. Axel), transient transfection
hCB2 [2] = target: T1, hCB2; experiment: TRUPATH BRET2 GoA dissociation, HEK293T; design: expressed in transfected cells; host or cells: HEK293T cells (ATCC: CRL-3216), transient co-transfection; conditions: Log[drug], replicate columns

T1 sequence (P34972 whole entry): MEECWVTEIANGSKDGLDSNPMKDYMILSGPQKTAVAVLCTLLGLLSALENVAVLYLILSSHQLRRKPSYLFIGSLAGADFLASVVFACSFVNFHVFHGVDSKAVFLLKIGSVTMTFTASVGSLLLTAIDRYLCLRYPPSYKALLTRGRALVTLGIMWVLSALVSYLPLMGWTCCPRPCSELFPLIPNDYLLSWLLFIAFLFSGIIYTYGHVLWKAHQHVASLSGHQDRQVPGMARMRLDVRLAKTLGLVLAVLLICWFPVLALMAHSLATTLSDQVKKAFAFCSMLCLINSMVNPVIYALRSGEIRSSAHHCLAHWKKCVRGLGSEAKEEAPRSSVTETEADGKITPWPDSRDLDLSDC
Sequence of hCB1 (P21554 whole entry): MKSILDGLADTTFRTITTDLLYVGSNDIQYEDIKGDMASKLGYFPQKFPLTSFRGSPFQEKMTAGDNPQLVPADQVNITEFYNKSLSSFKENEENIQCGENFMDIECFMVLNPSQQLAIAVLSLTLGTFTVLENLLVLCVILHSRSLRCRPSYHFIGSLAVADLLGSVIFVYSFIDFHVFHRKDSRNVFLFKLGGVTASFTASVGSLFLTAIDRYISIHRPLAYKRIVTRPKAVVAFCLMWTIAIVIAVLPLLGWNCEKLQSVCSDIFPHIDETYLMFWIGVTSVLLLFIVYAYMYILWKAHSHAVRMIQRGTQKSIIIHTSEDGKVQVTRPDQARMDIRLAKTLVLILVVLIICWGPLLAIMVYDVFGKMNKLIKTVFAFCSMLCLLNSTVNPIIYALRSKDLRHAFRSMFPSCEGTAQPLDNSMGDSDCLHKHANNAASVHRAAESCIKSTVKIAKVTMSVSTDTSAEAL

Compound: COC(=O)[C@@H]1[C@@H]2CCC[C@@H]2CN1C(=O)c1cc(C)n(-c2cccc(Cl)c2)n1 (racemic) [‘10010]
- Tango ß-arrestin recruitment Emax (hCB2 [1]): 18% [17 – 19]
- Tango ß-arrestin recruitment pEC50 (hCB2 [1]): 6.3 [6.2 – 6.3]
- EC50 (hCB2 [1]; read-out: Tango ß-arrestin recruitment EC50): 556 nM
- response, replicate values of concentration-response curve (FigS7f) (hCB1; Log[drug], M = -4.52): 24.852 and -9.474 and 31.57 and 49.261 and 34.9163 and 58.51 and 43.3772 and 13.5605 and 34.2635 and 143.166 and 149.946 and 121.258
- response, replicate values of concentration-response curve (FigS7f) (hCB1; Log[drug], M = -5): -6.393 and 4.812 and 50.5074 and 20.7309 and 18.1964 and 30.378 and 30.3734 and 43.3772 and 17.784 and 37.7997 and 110.741 and 29.9442
- response at Log[drug], M -5 (FigS4e) (hCB1; Log[drug], M = -5, individual replicates): 7.472 and 8.685 and 7.884 and 5.743 and 2.852 and 6.706 and 6.083 and 7.677 and 9.73 and 9.693 and 11.3624 and 13.6983
- response, replicate values of concentration-response curve (FigS7f) (hCB1; Log[drug], M = -5.52): -20.324 and 14.103 and 31.5067 and 7.169 and 19.8684 and 6.1872 and -9.345 and -6.435 and -28.1989 and 72.0832 and 46.8763 and 64.173
- response at Log[drug], M -5.52 (FigS4e) (hCB1; Log[drug], M = -5.52, individual replicates): 17.6293 and 13.3704 and 15.7552 and 17.3388 and 7.111 and 7.22 and 6.777 and 6.548 and 14.8053 and 14.1767 and 12.0847 and 15.6871
- response, replicate values of concentration-response curve (FigS7f) (hCB1; Log[drug], M = -6): -1.057 and 19.693 and 21.3155 and 18.7272 and -21.0026 and 10.5662 and 17.0767 and 0.7084 and 10.105 and 46.129 and 8.583 and -11.9397
- response at Log[drug], M -6 (FigS4e) (hCB1; Log[drug], M = -6, individual replicates): 17.4137 and 13.2205 and 12.7098 and 18.5288 and 2.8 and 2.042 and 0.7471 and 2.0116 and 5.809 and 8.098 and 10.8652 and 9.299
- response, replicate values of concentration-response curve (FigS7f) (hCB1; Log[drug], M = -6.52): 16.7142 and -12.7567 and -9.207 and 42.4801 and 2.591 and -9.299 and -1.706 and 6.518 and 3.588 and 25.7157 and 29.853 and 20.7035
- response at Log[drug], M -6.52 (FigS4e) (hCB1; Log[drug], M = -6.52, individual replicates): 5.804 and 6.685 and 5.518 and 6.338 and -2.975 and -1.665 and -2.183 and -3.091 and 1.981 and 0.8276 and 5.1991 and 1.175
- response, replicate values of concentration-response curve (FigS7f) (hCB1; Log[drug], M = -7): 11.1876 and 2.403 and 33.2939 and -14.3677 and -5.119 and -14.8322 and -4.192 and -26.8955 and -17.9232 and -30.0748 and 5.375 and 20.4665
- response at Log[drug], M -7 (FigS4e) (hCB1; Log[drug], M = -7, individual replicates): 8.629 and 6.746 and 5.86 and 10.4703 and -2.0219 and -2.877 and 1.224 and -2.078 and 2.76 and 0.06777 and 1.494 and 1.231
- response, replicate values of concentration-response curve (FigS7f) (hCB1; Log[drug], M = -7.52): -4.594 and -7.623 and -10.5004 and 2.14 and -6.485 and 4.329 and -8.365 and -9.244 and -13.1441 and 57.083 and -23.4769 and -26.8306
- response at Log[drug], M -7.52 (FigS4e) (hCB1; Log[drug], M = -7.52, individual replicates): 7.402 and 10.1376 and 9.341 and 5.865 and -1.189 and -1.594 and -1.932 and -1.59 and 2.357 and 3.37 and 0.3773 and 1.259
- response at Log[drug], M -8 (FigS4e) (hCB1; Log[drug], M = -8, individual replicates): 5.148 and 6.741 and 11.0794 and 7.462 and -3.208 and -1.519 and -1.219 and -1.073 and 3.632 and 3.698 and 2.085 and 1.362
- response at Log[drug], M -8.52 (FigS4e) (hCB1; Log[drug], M = -8.52, individual replicates): 6.619 and 9.146 and 5.084 and 9.668 and -0.1198 and -1.382 and -2.75 and -0.9228 and 3.28 and -0.4583 and 7.234 and 5.093
- response at Log[drug], M -9 (FigS4e) (hCB1; Log[drug], M = -9, individual replicates): 7.852 and 7.417 and 8.056 and 9.08 and -2.328 and -1.287 and -1.685 and -1.328 and 7.254 and 4.304 and 5.943 and 1.774
- response, replicate values of concentration-response curve (FigS7f) (hCB1; Log[drug], M = -9.52): 6.738 and -6.178 and -20.755 and -11.5014
- response at Log[drug], M -9.52 (FigS4e) (hCB1; Log[drug], M = -9.52, individual replicates): 9.847 and 11.0284 and 11.6628 and 8.737 and -1.263 and 0.9084 and -0.5418 and -0.1936 and 4.704 and 2.799 and 4.5399 and 1.57
- response, replicate values of concentration-response curve (FigS7f) (hCB1; Log[drug], M = -10): 28.4645 and -14.1129 and -6.736 and 44.2981 and 21.9252 and 39.0432 and 53.2891 and 13.6717 and 41.3867 and -34.1393 and -0.001553 and -21.0711
- response at Log[drug], M -10 (FigS4e) (hCB1; Log[drug], M = -10, individual replicates): 10.788 and 9.1102 and 5.959 and 9.12 and -1.758 and -1.431 and -1.611 and -0.8081 and 3.28 and 4.704 and 4.745 and 3.311
- response at Log[drug], M -10.52 (FigS4e) (hCB1; Log[drug], M = -10.52, individual replicates): 6.358 and 9.064 and 8.9107 and 9.172 and 1.265 and 0.1792 and -0.6688 and 1.04 and 3.157 and 2.819 and 2.153 and 4.1507
- response at Log[drug], M -11 (FigS4e) (hCB1; Log[drug], M = -11, individual replicates): 2.256 and 6.798 and 9.796 and 5.744 and -1.353 and -1.763 and 1.556 and -0.804 and 2.6758 and 2.932 and 3.905 and 1.57
- response at Log[drug], M -11.52 (FigS4e) (hCB1; Log[drug], M = -11.52, individual replicates): 2.281 and 3.903 and 3.253 and 1.1509 and 1.314 and 0.9699 and 1.212 and 0.552 and 3.905 and 2.9421 and 2.881 and 4.816
- response at Log[drug], M -12 (FigS4e) (hCB1; Log[drug], M = -12, individual replicates): 1.069 and -1.289 and -0.4859 and 0.7059 and -0.1854 and 0.7118 and -1.111 and 0.5848 and 1.078 and -0.868 and 0.4635 and -0.6734
- EC50 (hCB1; hCB1, read-out: Tango ß-arrestin recruitment EC50): > 10000 nM
- functional response, concentration-response point (FigS7e, normalized) (hCB2 [2]; M = -5): 13.7314 and 19.7654 and 16.2539 and 16.3582 and 15.5266 and 14.7181 and 16.9744 and 17.1956 and 17.3437 and 20.7447 and 17.5139 and 16.5546
- functional response, concentration-response point (FigS7e, normalized) (hCB2 [2]; M = -5.52): 20.9042 and 19.2165 and 18.0732 and 18.0369 and 19.6455 and 19.8563 and 17.8521 and 14.5073 and 16.3411 and 19.903 and 17.2602 and 16.9755
- functional response, concentration-response point (FigS7e, normalized) (hCB2 [2]; M = -6): 10.7507 and 14.9427 and 13.7359 and 16.0951 and 12.4583 and 11.3422 and 12.1059 and 9.687 and 11.8107 and 11.4703 and 9.703 and 11.3929
- functional response, concentration-response point (FigS7e, normalized) (hCB2 [2]; M = -6.52): 4.563 and 6.7947 and 8.079 and 4.985 and 4.497 and 4.0725 and 5.772 and 5.524 and 4.879 and 5.1763 and 4.984 and 5.043
- functional response, concentration-response point (FigS7e, normalized) (hCB2 [2]; M = -7): 0.9969 and 1.487 and 2.14 and 1.042 and 1.585 and 1.996 and 1.046 and 1.153 and 1.5 and 1.42 and 1.036 and 1.049
- functional response, concentration-response point (FigS7e, normalized) (hCB2 [2]; M = -7.52): 0.4797 and -0.06465 and 1.02 and 1.242 and 0.9491 and 0.7245 and 0.6969 and 0.2961 and 0.374 and 0.3276 and 0.4451 and 0.1667
- functional response, concentration-response point (FigS7e, normalized) (hCB2 [2]; M = -8): 0.02154 and 0.144 and -0.228 and -0.5682 and 0.189 and -0.07359 and -0.0114 and 0.652 and 0.7051 and 0.1667 and -0.0685 and 0.08312
- functional response, concentration-response point (FigS7e, normalized) (hCB2 [2]; M = -8.52): -0.1696 and -0.1994 and 0.2365 and -0.2192 and 0.07356 and 0.6319 and 1.0091 and 0.1075 and 0.1334 and 0.5456 and 0.1807 and -0.04223
- functional response, concentration-response point (FigS7e, normalized) (hCB2 [2]; M = -12): -0.3529 and 0.3603 and 0.09782 and -0.1053
